Like-named read-outs stand apart in the source and are kept apart here.
What was measured:
Assay type in all cases: cell-based
[1] = molecular target: T1, norepinephrine transporter (Homo sapiens, UniProt P23975); test: Norepinephrine reuptake inhibition in transporter-transfected HEK-293 cells ([3H]-NE); settings: for Triple reuptake inhibition (Ratio %) NET: compound 1 μM, [3H]-NE, relative to control without compound (100%), lower = more inhibition
T1 construct: expressed in transfected cells; host or cells: HEK-293
T1 sequence (P23975 whole entry, species assumed): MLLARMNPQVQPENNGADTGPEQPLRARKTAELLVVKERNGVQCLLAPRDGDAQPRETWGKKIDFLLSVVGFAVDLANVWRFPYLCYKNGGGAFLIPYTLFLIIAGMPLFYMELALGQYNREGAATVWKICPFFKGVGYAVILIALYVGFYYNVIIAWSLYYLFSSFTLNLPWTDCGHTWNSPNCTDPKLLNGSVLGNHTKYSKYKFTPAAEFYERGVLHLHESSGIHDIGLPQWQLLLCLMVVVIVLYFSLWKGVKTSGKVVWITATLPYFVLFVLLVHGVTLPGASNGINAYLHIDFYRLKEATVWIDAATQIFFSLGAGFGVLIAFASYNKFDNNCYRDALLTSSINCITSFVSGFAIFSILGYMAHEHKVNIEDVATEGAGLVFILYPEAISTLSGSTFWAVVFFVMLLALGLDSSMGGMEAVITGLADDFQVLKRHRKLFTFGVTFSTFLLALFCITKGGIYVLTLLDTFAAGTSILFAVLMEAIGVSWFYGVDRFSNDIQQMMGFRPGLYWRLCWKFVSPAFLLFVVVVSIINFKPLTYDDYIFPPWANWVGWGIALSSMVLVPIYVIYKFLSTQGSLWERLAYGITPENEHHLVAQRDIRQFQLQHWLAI
Experimental: (§1) To evaluate the reuptake inhibitory effect on dopamine, the dopamine transporter cDNA was transfected using the HEK-293 cell line, and then sub-seeded in a 24 well plate the next day. After removing the medium, each compound of the Examples or Comparative Examples diluted to 1 μM in uptake buffer was added to a concentration of 200 μl/well and cultured at 37° C. for 15 minutes. 100 μl of uptake buffer containing 20-30 nM [3H]-DA was added and cultured at 37° C. for 5 minutes. The reaction solution was quickly removed and washed three times with 1 ml ice-cold uptake buffer. After dissolving the resultant in 1% SDS (0.5 ml), the degree of binding of radioisotope-labeled dopamine to the transporter was measured.
(§2) For norepinephrine (NE) and serotonin (5-HT), the degree of binding of radioisotope-labeled norepinephrine or serotonin to the transporter was measured in the same manner as above, except that cells transfected with NE or 5-HT transporter cDNA were used and [3H]-NE or [3H]-5-HT was used as a substrate.
(§3) In addition, when evaluating the reuptake inhibitory effect on dopamine, norepinephrine, and serotonin, the same method was performed without treating each compound of the Examples or Comparative Examples as a control, the degree of binding of radioisotope-labeled dopamine, norepinephrine, and serotonin to the transporter was measured, and by using this as a standard (100%), the triple reuptake inhibitory effect was evaluated as a relative ratio (Ratio %). That is, in the control group, the binding of dopamine, norepinephrine, and serotonin to transporters is not inhibited, but when each compound of the Examples is treated and thus the binding is inhibited, the Patio % value decreases.
(§4) Meanwhile, the Patio % values were compared, and in the case of the compounds of Examples 6, 9, 10, 19, 20, 22, 24, 28, 30, 31, 32, 33, 35, 41, 42, 48, 49, 51, 55, 56, 59, 61, 63, 64, 65, 66, 74 and 76 with excellent reuptake inhibitory effects on dopamine, norepinephrine and serotonin, the concentration at which the Ratio % is 50% was calculated using a total of 6 concentrations (1 nM, 5 nM, 10 nM, 50 nM, 100 nM, and 1 μM) and expressed as IC50. In addition, in the case of the compound of Comparative Example 1, IC50 was obtained by the same method as the Example Compounds.

dopamine transporter = molecular target: T2, dopamine transporter (Homo sapiens, UniProt Q01959); test: Dopamine reuptake inhibition in transporter-transfected HEK-293 cells ([3H]-DA); settings: for Triple reuptake inhibition (Ratio %) DAT: compound 1 μM, 20-30 nM [3H]-DA, relative to control without compound (100%), lower = more inhibition
T2 construct: expressed in transfected cells; host or cells: HEK-293
T2 sequence (Q01959 whole entry): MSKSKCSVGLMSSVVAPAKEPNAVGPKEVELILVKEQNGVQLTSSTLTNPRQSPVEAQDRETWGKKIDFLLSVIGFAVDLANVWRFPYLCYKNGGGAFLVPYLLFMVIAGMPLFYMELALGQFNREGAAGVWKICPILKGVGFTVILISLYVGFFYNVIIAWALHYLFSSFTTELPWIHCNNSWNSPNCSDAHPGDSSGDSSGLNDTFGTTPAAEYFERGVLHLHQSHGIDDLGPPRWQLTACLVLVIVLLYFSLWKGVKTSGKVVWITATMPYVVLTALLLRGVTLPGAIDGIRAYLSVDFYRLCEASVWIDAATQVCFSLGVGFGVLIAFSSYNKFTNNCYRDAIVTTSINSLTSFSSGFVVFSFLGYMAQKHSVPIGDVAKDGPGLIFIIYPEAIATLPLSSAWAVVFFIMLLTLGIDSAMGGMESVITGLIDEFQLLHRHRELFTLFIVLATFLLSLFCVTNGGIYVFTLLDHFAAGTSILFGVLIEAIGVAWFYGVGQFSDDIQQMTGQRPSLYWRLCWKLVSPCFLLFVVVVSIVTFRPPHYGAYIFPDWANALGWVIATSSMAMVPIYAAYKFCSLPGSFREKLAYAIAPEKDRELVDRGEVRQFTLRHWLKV
Experimental: as §1, §3, §4

serotonin transporter = molecular target: T3, serotonin transporter (Homo sapiens, UniProt P31645); test: Serotonin reuptake inhibition in transporter-transfected HEK-293 cells ([3H]-5-HT); settings: for Triple reuptake inhibition (Ratio %) SERT: compound 1 μM, [3H]-5-HT, relative to control without compound (100%), lower = more inhibition
T3 construct: expressed in transfected cells; host or cells: HEK-293
T3 sequence (P31645 whole entry): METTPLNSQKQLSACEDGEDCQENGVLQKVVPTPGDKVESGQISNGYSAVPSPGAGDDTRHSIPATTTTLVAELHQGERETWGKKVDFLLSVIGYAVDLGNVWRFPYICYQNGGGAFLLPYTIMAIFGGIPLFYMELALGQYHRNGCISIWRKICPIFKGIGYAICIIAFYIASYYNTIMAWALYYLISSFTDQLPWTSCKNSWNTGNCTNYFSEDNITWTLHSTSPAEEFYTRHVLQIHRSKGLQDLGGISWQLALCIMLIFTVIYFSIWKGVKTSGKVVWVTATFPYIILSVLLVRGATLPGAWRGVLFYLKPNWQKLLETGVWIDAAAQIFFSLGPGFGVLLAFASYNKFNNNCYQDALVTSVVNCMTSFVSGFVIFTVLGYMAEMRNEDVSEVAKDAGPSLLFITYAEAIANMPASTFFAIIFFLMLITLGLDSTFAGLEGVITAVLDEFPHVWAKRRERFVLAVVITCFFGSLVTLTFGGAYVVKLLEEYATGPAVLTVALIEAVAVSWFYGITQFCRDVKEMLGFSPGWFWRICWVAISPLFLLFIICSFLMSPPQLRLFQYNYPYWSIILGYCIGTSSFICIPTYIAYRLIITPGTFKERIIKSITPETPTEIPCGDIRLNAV
Experimental: as §1, §2, §3
In addition, in the case of the compound of Comparative Example 1, IC50 was obtained by the same method as the Example Compounds.

[2] = concentration at which Ratio % is 50%, 6 concentrations 1 nM to 1 μM, read-out: Triple reuptake inhibition (IC50, μM) NET
[3] = concentration at which Ratio % is 50%, 6 concentrations 1 nM to 1 μM, read-out: Triple reuptake inhibition (IC50, μM) DAT
[4] = concentration at which Ratio % is 50%, 6 concentrations 1 nM to 1 μM, read-out: Triple reuptake inhibition (IC50, μM) SERT

Row | Triple reuptake inhibition (Ratio %) NET [1] | IC50 [1, 2] | Triple reuptake inhibition (Ratio %) DAT (dopamine transporter) | IC50 (dopamine transporter; [3]) | Triple reuptake inhibition (Ratio %) SERT (serotonin transporter) | SMILES | IC50 (serotonin transporter; [4]) | IC50 [1] | IC50 (dopamine transporter) | IC50 (serotonin transporter)
1 | 110.55% | – | 77.49% | – | 42.91% | O=C(NCCN1CCC(Cc2ccccc2)CC1)c1cc2cc(OCc3ccccc3)ccc2[nH]1 [Example 46, 5-(benzyloxy)-N-(2-(4-benzylpiperidin-1-yl)ethyl)-1H-indol-2-carboxamide] | – | – | – | –
2 | 28.47% | 0.337 µM | 39.87% | 0.509 µM | 67.26% | Cn1c(C(=O)NCCN2CCC(Cc3ccccc3)CC2)cc2ccccc21 [Example 74, N-(2-(4-benzylpiperidin-1-yl)ethyl)-1-methyl-1H-indol-2-carboxamide] | 3.41 µM | – | – | –
3 | 56.98% | – | 30.29% | – | 81.76% | CC(CN1CCC(Cc2ccccc2)CC1)NC(=O)c1cc2ccccc2[nH]1 (stereo not drawn) [Example 43, N-(1-(4-benzylpiperidin-1-yl)propan-2-yl)-1H-indol-2-carboxamide] | – | – | – | –
4 | 94.59% | – | 41.80% | – | 75.98% | O=C(NCCN1CCC(Cc2ccccc2)CC1)c1cc2cc(Cl)c(Cl)cc2[nH]1 [Example 47, N-(2-(4-benzylpiperidin-1-yl)ethyl)-5,6-dichloro-1H-indol-2-carboxamide] | – | – | – | –
5 | 37.73% | – | 47.70% | – | 41.20% | NC(=O)c1ccc2[nH]c(C(=O)NCCN3CCC(Cc4ccccc4)CC3)cc2c1 [Example 82, N2-(2-(4-benzylpiperidin-1-yl)ethyl)-1H-indol-2,5-dicarboxamide] | – | – | – | –
6 | 70.66% | – | 55.54% | – | 90.64% | CC(C)(CN1CCC(Cc2ccccc2)CC1)NC(=O)c1cc2ccccc2[nH]1 [Example 34, N-(1-(4-benzylpiperidin-1-yl)-2-methylpropan-2-yl)-1H-indol-2-carboxamide] | – | – | – | –
7 | 85.70% | – | 43.53% | 1.37 µM | 83.11% | Cc1c(C(=O)NCCN2CCC(Cc3ccccc3)CC2)[nH]c2ccccc12 [Example 20, N-(2-(4-benzylpiperidin-1-yl)ethyl)-3-methyl-1H-indol-2-carboxamide] | – | – | – | –
8 | 65.51% | 1.7 µM | 25.55% | 0.331 µM | 48.73% | COc1ccc2[nH]c(C(=O)NCCN3CCC(Cc4ccccc4)CC3)cc2c1 [Example 33, N-(2-(4-benzylpiperidin-1-yl)ethyl)-5-methoxy-1H-indol-2-carboxamide] | 1.33 µM | – | – | –

The remaining lines, values behind:

Row | SMILES | Triple reuptake inhibition (Ratio %) NET [1] | IC50 [1, 2] | Triple reuptake inhibition (Ratio %) DAT (dopamine transporter) | IC50 (dopamine transporter; [3]) | Triple reuptake inhibition (Ratio %) SERT (serotonin transporter) | IC50 (serotonin transporter; [4]) | IC50 [1] | IC50 (dopamine transporter) | IC50 (serotonin transporter)
9 | CCCCOc1ccc2cc(C(=O)NCCN3CCC(Cc4ccccc4)CC3)[nH]c2c1 [Example 42, N-(2-(4-benzylpiperidin-1-yl)ethyl)-6-butoxy-1H-indol-2-carboxamide] | 44.53% | 0.171 µM | 45.67% | 0.338 µM | 46.64% | 0.68 µM | – | – | –
10 | O=C(NCCN1CCC(Cc2ccccc2)CC1)c1nc2cc(F)ccc2s1 [Example 60, N-(2-(4-benzylpiperidin-1-yl)ethyl)-5-fluorobenzo(d)thiazol-2-carboxamide] | 50.81% | – | 68.95% | – | 53.40% | – | – | – | –
11 | O=C(NCCN1CCC(Cc2ccc(Cl)c(Cl)c2)CC1)c1cc2ccccc2[nH]1 [Example 19, N-(2-(4-(3,4-dichlorobenzyl)piperidin-1-yl)ethyl)-1H-indol-2-carboxamide] | 94.93% | > 10 µM | 36.79% | 0.59 µM | 40.39% | 0.51 µM | – | – | –
12 | O=C(NCCN1CCC(Cc2ccccc2)CC1)c1ccc[nH]1 [Example 75, N-(2-(4-benzylpiperidin-1-yl)ethyl)-1H-pyrrol-2-carboxamide] | 67.08% | – | 83.55% | – | 98.97% | – | – | – | –
13 | O=C(NCCN1CCC(Cc2ccccc2)CC1)C1Cc2ccccc2N1 (stereo not drawn) [Example 57, N-(2-(4-benzylpiperidin-1-yl)ethyl) indolin-2-carboxamide] | 124.77% | – | 60.52% | – | 77.95% | – | – | – | –
14 | O=C(NCCN1CCN(Cc2ccc(F)c(F)c2)CC1)c1ccc2cc(Br)ccc2c1 [Example 7, 6-bromo-N-(2-(4-(3,4-difluorobenzyl)piperazin-1-yl)ethyl)-2-naphthamide] | 60.83% | – | 82.42% | – | 103.19% | – | – | – | –
15 | O=C(NCCN1CCC(Cc2ccc(Cl)c(Cl)c2)CC1)c1cc(Cl)cc(Cl)c1 [Example 10, 3,5-dichloro-N-(2-(4-(3,4-dichlorobenzyl)piperidin-1-yl)ethyl)benzamide] | 76.85% | 14.3 µM | 44.72% | 4.29 µM | 37.57% | – | – | – | –
16 | O=C(NCCN1CCC(Cc2ccccc2)CC1)c1ccccn1 [Example 71, N-(2-(4-benzylpiperidin-1-yl)ethyl)picolinamide] | 105.84% | – | 117.41% | – | 67.98% | – | – | – | –
17 | O=C(CCN1CCC(Cc2ccccc2)CC1)Nc1cc2ccccc2[nH]1 [Example 76, 3-(4-benzylpiperidin-1-yl)-N-(1H-indol-2-yl)propanamide] | 32.60% | – | 36.87% | – | 68.60% | – | 0.496 µM | 0.278 µM | 0.811 µM
18 | CCCCOc1ccc(C(=O)NCCN2CCC(c3c[nH]c4ccccc34)CC2)cc1 [Example 72, N-(2-(4-(1H-indol-3-yl)piperidin-1-yl)ethyl)-4-butoxybenzamide] | 97.62% | – | 58.16% | – | 17.44% | – | – | – | –
19 | O=C(NCCN1CCC(Cc2ccccc2)CC1)C1CC1 [Example 69, N-(2-(4-benzylpiperidin-1-yl)ethyl)cyclopropanecarboxamide] | 86.02% | – | 92.83% | – | 113.80% | – | – | – | –
20 | O=C(NCCN1CCN(c2ccc(Cl)c(Cl)c2)CC1)c1ccc2cc(Br)ccc2c1 [Example 3, 6-bromo-N-(2-(4-(3,4-dichlorophenyl)piperazin-1-yl)ethyl)-2-naphthamide] | 110.56% | – | 104.38% | – | 77.91% | – | – | – | –
21 | CCCCOc1ccc2[nH]c(C(=O)NCCN3CCC(Cc4ccccc4)CC3)cc2c1 [Example 67, N-(2-(4-benzylpiperidin-1-yl)ethyl)-5-butoxy-1H-indol-2-carboxamide] | 92.60% | – | 56.05% | – | 53.46% | – | – | – | –
22 | O=C(NCCN1CCN(c2cccc(Cl)c2Cl)CC1)c1cc2ccccc2[nH]1 [Example 23, N-(2-(4-(2,3-dichlorophenyl)piperazin-1-yl)ethyl)-1H-indol-2-carboxamide] | 99.59% | – | 70.42% | – | 85.13% | – | – | – | –
